# Publication PMC4420865 (Journal of Cerebral Blood Flow & Metabolism, 2015)
# Legend:
# [1] = Tariquidar plasma concentrations during PET scan 2; format: in vivo, human
# [2] = molecular target: human Pgp (Homo sapiens, UniProt P08183); assay: Inhibition of transport of [^3H]verapamil by human Pgp; format: biochemical
# [3] = Adverse reactions during tariquidar infusion; format: in vivo, human
# [4] = cited from earlier work
# [5] = system: Pgp at the human BBB; conditions: cited from earlier work
# [6] = system: Pgp at the human BBB; conditions: humans, tariquidar 6 mg/kg body weight; cited from earlier work
# human Pgp, sequence (P08183 whole entry, the tested form may be a part): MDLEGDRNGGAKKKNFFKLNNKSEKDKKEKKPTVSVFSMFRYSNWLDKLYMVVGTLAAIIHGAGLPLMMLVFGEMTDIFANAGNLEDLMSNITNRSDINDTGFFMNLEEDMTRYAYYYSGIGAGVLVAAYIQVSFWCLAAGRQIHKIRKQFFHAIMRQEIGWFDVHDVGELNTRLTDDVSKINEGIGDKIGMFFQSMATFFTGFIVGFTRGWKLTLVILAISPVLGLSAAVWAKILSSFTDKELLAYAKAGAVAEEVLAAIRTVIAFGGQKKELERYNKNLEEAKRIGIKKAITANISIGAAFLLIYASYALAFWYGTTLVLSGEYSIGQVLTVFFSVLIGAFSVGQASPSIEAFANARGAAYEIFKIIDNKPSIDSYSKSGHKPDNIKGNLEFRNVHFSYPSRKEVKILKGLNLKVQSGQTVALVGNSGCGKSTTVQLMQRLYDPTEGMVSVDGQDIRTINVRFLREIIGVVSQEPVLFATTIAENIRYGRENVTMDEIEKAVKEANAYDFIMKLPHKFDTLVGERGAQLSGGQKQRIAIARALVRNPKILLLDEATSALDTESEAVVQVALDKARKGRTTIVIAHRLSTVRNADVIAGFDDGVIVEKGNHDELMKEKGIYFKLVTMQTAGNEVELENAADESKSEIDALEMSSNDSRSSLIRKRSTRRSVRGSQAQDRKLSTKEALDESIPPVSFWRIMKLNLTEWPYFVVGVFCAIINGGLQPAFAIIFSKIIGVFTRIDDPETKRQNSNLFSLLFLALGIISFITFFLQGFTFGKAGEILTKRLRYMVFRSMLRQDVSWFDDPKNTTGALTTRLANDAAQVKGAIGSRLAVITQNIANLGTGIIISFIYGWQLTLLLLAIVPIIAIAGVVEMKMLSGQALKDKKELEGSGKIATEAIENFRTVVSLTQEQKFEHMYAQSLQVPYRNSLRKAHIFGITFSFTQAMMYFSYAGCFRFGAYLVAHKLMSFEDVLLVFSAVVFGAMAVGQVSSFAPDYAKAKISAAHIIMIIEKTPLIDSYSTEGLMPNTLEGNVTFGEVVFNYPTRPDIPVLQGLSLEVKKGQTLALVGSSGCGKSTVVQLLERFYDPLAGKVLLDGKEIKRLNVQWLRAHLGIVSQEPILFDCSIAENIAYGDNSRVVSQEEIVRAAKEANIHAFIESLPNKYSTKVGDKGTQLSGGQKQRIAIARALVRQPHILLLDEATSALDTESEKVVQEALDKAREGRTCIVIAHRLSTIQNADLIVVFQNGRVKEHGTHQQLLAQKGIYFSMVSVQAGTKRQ
smiles,measurement,setting,value
COc1cc2c(cc1OC)CN(CCc1ccc(NC(=O)c3cc(OC)c(OC)cc3NC(=O)c3cnc4ccccc4c3)cc1)CC2 [tariquidar],Mean tariquidar plasma concentration during the PET scan,"[1]; continuous i.v. infusion, mean dose 5.9±1.0 mg/kg, mean±s.d.","2,873±517 nmol/L"
same,"Mean tariquidar plasma concentration, times higher than in previous study",[1]; versus previous study ref 7,2–3 times
same,Ki,[2],8.5 nM
same,Subjects with mild adverse reactions most likely related to tariquidar,"[3]; five healthy men, mean dose 5.9±1.0 mg/kg i.v. infusion",four out of five subjects
same,"Dizziness, N subjects",[3]; of five subjects,1
same,"Metallic taste in the mouth, N subjects",[3]; of five subjects,3
same,Fraction of unbound tariquidar in human plasma,[4],0.0063±0.0021
same,Increase in brain distribution of (R)-[^11C]verapamil,"[5]; humans, tariquidar 6 mg/kg body weight",129%
same,EC50,"[5]; read-out: Previously estimated EC50 of tariquidar in humans, enhancement of brain uptake of (R)-[^11C]verapamil",868 nM
same,Increase in brain distribution of [^11C]N-desmethyl-loperamide,[6],223%
